# Experiments:
# [1] = in vivo; cited from earlier work
# PTZ-induced seizures = experiment: Anticonvulsant action in the pentylenetetrazol (PTZ) seizure model after 15-day oral pretreatment; format: in vivo, C57BL/6 male mice
# Protocol: The anticonvulsant action of a preparation according to the invention, consisting of alpha-lactalbumin and sodium butyrate, was evaluated in comparison with that of the single components alpha-lactalbumin and sodium butyrate in the above-mentioned animal model, using the convulsant agent pentylenetetrazol
# The experiment was carried out on groups of 10 C57BL/6 male mice (Charles River Italy) for each tested dose (control groups of 10 C57BL/6 male mice were also used).
# The animals of all groups were subcutaneously administered pentylenetetrazol (65 mg/kg) at the end of a 15-day pretreatment with sodium butyrate, alpha-lactalbumin, alpha-lactalbumin+sodium butyrate or vehicle, i.e. water (control), respectively.
# This pretreatment was carried out by oral administration of a solution of either one of sodium butyrate, alpha-lactalbumin, alpha-lactalbumin+sodium butyrate in the vehicle, consisting of water, and of the vehicle (water) alone.
# Firstly, three groups of 10 mice were orally administered 30 mg/day, 100 mg/day and 250 mg/day of sodium butyrate respectively, in the form of an aqueous solution contained in the bottle of the cage, for 15 days. The bottle of the cage of the control group (10 mice) only contained water.
# On the 16th day, the animals of the four groups were subcutaneously administered 65 mg/kg of pentylenetetrazol.
# Then, three groups of 10 mice were orally administered 125 mg/day, 250 mg/day and 375 mg/day of alpha-lactalbumin respectively, in the form of an aqueous solution contained in the bottle of the cage, for 15 days. The bottle of the cage of the control group (10 mice) only contained water.
# On the 16th day, the animals of the four groups were subcutaneously administered 65 mg/kg of pentylenetetrazol (PTZ).
# Finally, a first group of 10 mice was orally administered 125 mg alpha-lactalbumin+100 mg sodium butyrate per day, a second group of 10 mice was orally administered 250 mg alpha-lactalbumin+100 mg sodium butyrate per day, a third group of 10 mice was orally administered 375 mg alpha-lactalbumin+100 mg sodium butyrate per day, in the form of an aqueous solution contained in the bottle of the cage, for 15 days. The bottle of the cage of the control group (10 mice) only contained water.
# [2] = cited from earlier work
# [3] = tested on: seizures induced by acoustic stimulation; details: after three weeks of treatment; cited from earlier work
# audiogenic seizures = experiment: Protection against seizures in experimental models of epilepsy (audiogenic seizures in genetically epilepsy-prone-9 rats); format: in vivo; details: different experimental models of epilepsy; no increase on continuing up to 12 days; not dose dependent
# Source text: Also the results obtained both in experimental models and in clinical trials confirm the need of repeated administrations for several days.
molecule,measurement,setting,value
CCCC(=O)O [butyric acid],cerebral uptake,[1],~0.006%
"CCCC(=O)[O-].[Na+] [sodium butyrate, reference compound]",animals that experienced seizures induced by pentylenetetrazol,"PTZ-induced seizures; sodium butyrate 30, 100 or 250 mg/day oral in drinking water for 15 days, PTZ 65 mg/kg s.c. on day 16, no significant difference from control",100%
same,activity towards the seizures induced by pentylenetetrazol,PTZ-induced seizures; sodium butyrate alone,devoid of any activity
alpha-lactalbumin,effect on percentage of mice with PTZ-induced seizures,"PTZ-induced seizures; alpha-lactalbumin 125 mg/day alone, oral for 15 days",does not significantly decrease
same,animals showing PTZ-induced seizures,"PTZ-induced seizures; alpha-lactalbumin 375 mg/day oral for 15 days, PTZ 65 mg/kg s.c. on day 16",less than 40%
same,course of percentage of animals with PTZ-induced seizures over dose,"PTZ-induced seizures; alpha-lactalbumin 125, 250, 375 mg/day oral for 15 days",decrease in a dose-dependent fashion
same,time after oral administration to demolition into medium-small peptides in the stomach,[2],15 min
same,duration of protective effect against seizures after suspension of treatment,[3],at least one month
same,days of repeated administrations until protective action against seizures occurs,audiogenic seizures,at least 6 days

# Reference: US11554162B2, “Pharmaceutical or food supplement preparation based on alpha-lactalbumin” (KOLFARMA S.R.L., priority 2018, dated 2023)
